According to article PMC8522775, “Population Pharmacokinetics of Rezafungin in Patients with Fungal Infections” (Antimicrobial Agents and Chemotherapy, 2021):
Like-named read-outs stand apart in the source and are kept apart here. Numbered stars: 1 amine (or outer) side, 2 acyl side, 3 side chain; on linkers, the order of the positions; unused ones are H or OH. Bridge positions count the residues as written; N and C are the ends. Square brackets hold non-standard residues; d marks the D form. Peptide text beside a SMILES is read from it. * marks the point of attachment. Orn(4R-OH,5R-OCH2CH2NMe3+) = C[N+](C)(C)CCO[C@@H](N[*:3])[C@H](O)C[C@H](N[*:1])C(=O)[*:2]; pTerphenylCO(4''-OnC5H11) = CCCCCOc1ccc(-c2ccc(-c3ccc(C(=O)*)cc3)cc2)cc1; hTyr(3S-OH,4S-OH) = N[C@H](C(=O)O)[C@H](O)[C@@H](O)c1ccc(O)cc1; Pro(3S-OH,4S-Me) = C[C@H]1CN[C@H](C(=O)O)[C@H]1O; Hyp = O=C(O)[C@@H]1C[C@@H](O)CN1

Tests used:
[1] = Population PK model of rezafungin in plasma, pooled phase 1 and phase 2 data; format: in vivo, human
Description: Data were pooled from three phase 1 studies (NCT02516904, NCT02551549, and CD101.IV.1.06) and one phase 2 study (NCT02734862). The protocols and informed consent were reviewed and approved by an appropriate institutional review board before subject enrollment. The studies were designed and monitored in compliance with the ethical principles of good clinical practice and in accordance with the Declaration of Helsinki.
The first phase 1 study (NCT2516904) was a single ascending dose (SAD) study in which subjects received a single rezafungin dose of 50, 100, 200, or 400 mg or matching placebo administered as a 60-min IV infusion. A total of 32 subjects were enrolled and randomized evenly to each of the four dosing cohorts (6 active and 2 placebo in each cohort). Blood samples for determination of rezafungin plasma concentrations were obtained prior to the dose and at 0.25, 0.5, 1, 1.5, 2, 4, 6, 8, 12, 24, 48, and 120 h after the start of infusion and on days 7, 14 (±1 day), and 21 (±1 day). The second phase 1 study (NCT02551549) was a multiple ascending dose (MAD) study. A total of 24 subjects were enrolled and randomized evenly to one of three cohorts. In cohorts 1 and 2, subjects received 100 or 200 mg of rezafungin (or matching placebo in a 3:1 ratio in each cohort), respectively, as 60-min IV infusions on days 1 and 8. In cohort 3, subjects received 400 mg (or matching placebo in a 3:1 ratio), respectively, as 60-min IV infusions on days 1, 8, and 15. Blood samples were collected predose and at 0.5, 1, 1.5, 2, 4, 6, 8, 12, 24, 48, and 120 h after the start of each infusion and on days 7, 14 (±1 day), 21 (±1 day), and 35 (±1 day, cohort 3 only). The third phase 1 study (CD101.IV.1.06) was designed to assess the impact of single, ascending doses of rezafungin on QTcF interval in healthy subjects. Subjects were randomized to receive either rezafungin (600 or 1,400 mg IV at a rate of 400 mg/h, n = 12 per dose group), moxifloxacin (400 mg IV, n = 24), or placebo. Only data from subjects randomized to rezafungin were included in the population PK analysis data set. Blood samples for determination of rezafungin plasma concentrations were obtained prior to the dose and at 1.5, 2.5, 3.5, 5, 6, 8, 12, 24, 48, 96, and 168 h after the start of the infusion.
(§1) The phase 2 study (NCT02734862, also known as the STRIVE trial) was a multicenter, randomized, double-blind study designed to assess the safety and efficacy of rezafungin, compared to that of caspofungin followed by optional oral fluconazole step-down, in the treatment of patients with candidemia and/or invasive candidiasis. Treatment groups included two dose regimens of rezafungin IV once weekly (400 mg IV or 400 mg IV on week 1 followed by 200 mg on subsequent weeks) or caspofungin IV once daily. Additional doses after day 14 were allowed based on criteria defined in the study protocol. Blood samples for determination of rezafungin plasma concentrations were obtained within 10 min before the end of infusion and either at 4 and 8 h on day 1 (as specified in the original protocol) or from 15 min to 1 h after the end of infusion and 2 to 12 h after the end of infusion on day 1 (as modified by protocol amendment, designed to better inform the population PK model). Additional samples were obtained with random clinical blood draws on day 2 and day 4, as well as prior to the dose on day 8 and day 15 (or day 14 if no day 15 dose was administered).
All blood samples were assayed for plasma rezafungin concentration using a liquid chromatography coupled to tandem mass spectrometry (LC/MS/MS) method that has been described previously ([11], [12]). In brief, the calibration range for the assay was 10.0 ng/ml to 10,000 ng/ml, and interassay accuracy and precision were excellent (accuracy ranged from 0.3 to 4.3%, and precision ranged from 2.7 to 5.0%). The same assay was used for all four studies. […]

[2] = Post hoc rezafungin exposure and PK parameter estimates for patients of the STRIVE trial; format: in vivo, human; conditions: n = 68, plasma; for AUC0–168 / Cmax / Cmin: after first dose and prior to the second dose; for AUC0–168: from individual post hoc parameters; for Cmax: highest predicted concentration; for Cmin: lowest predicted concentration; for clearance / Vd: human, iv; for clearance: individual post hoc estimates from final model; for Vd: volume of distribution at steady state, individual post hoc estimates, read-out: Vss
Protocol: as §1
All blood samples were assayed for plasma rezafungin concentration using a liquid chromatography coupled to tandem mass spectrometry (LC/MS/MS) method that has been described previously ([11], [12]). In brief, the calibration range for the assay was 10.0 ng/ml to 10,000 ng/ml, and interassay accuracy and precision were excellent (accuracy ranged from 0.3 to 4.3%, and precision ranged from 2.7 to 5.0%). The same assay was used for all four studies.
Patient-specific estimates of rezafungin exposure (AUC from zero to tau [AUC0−τ], maximum concentration of drug [Cmax], and minimum concentration of drug [Cmin]) were derived using individual post hoc PK parameter estimates obtained from the final model. The PK parameters and the mrgsolve package in R ([22]) were then used to simulate predicted plasma rezafungin concentration-time data for each subject for the duration of time between the first and second doses. Cmax and Cmin were defined as the highest and lowest predicted concentrations over that first dosing interval, respectively, while AUC0-τ was calculated via numerical integration of the concentration-time profile. Summary statistics for the rezafungin exposures and key PK parameters (i.e., CL and volume of distribution at steady state [Vss]) were calculated for the patients from the STRIVE trial.

[3] = with normal serum albumin, cited from earlier work
Description: Consistent with the previous population PK model, which had relationships between body weight and all PK parameters ([12]), body size in the form of BSA was predictive of the variability in Vc, Vp1, and Vp2. However, body size was not a significant predictor of the variability in rezafungin CL in this population. One possible explanation for the lack of a body size relationship for CL is the fact that sex is predictive of the IIV in CL but none of the vo ...

[4] = final population PK model, covariate effect: (BSA/1.83)^power
[5] = STRIVE patients, median (range)

SMILES: CCCCCOc1ccc(-c2ccc(-c3ccc(C(=O)N[C@H]4C[C@@H](O)[C@@H](OCC[N+](C)(C)C)NC(=O)[C@@H]5[C@@H](O)[C@@H](C)CN5C(=O)[C@H]([C@@H](C)O)NC(=O)[C@H]([C@H](O)[C@@H](O)c5ccc(O)cc5)NC(=O)[C@@H]5C[C@@H](O)CN5C(=O)[C@H]([C@@H](C)O)NC4=O)cc3)cc2)cc1 [rezafungin] ({pTerphenylCO(4''-OnC5H11)}-[Orn(4R-OH,5R-OCH2CH2NMe3+)]T[Hyp][hTyr(3S-OH,4S-OH)]T[Pro(3S-OH,4S-Me)]; lactam 1-C)
- Vc, proportional change in infected patients ([1]; final population PK model, covariate effect of infection status on Vc): 0.478
- Vp2, proportional change in infected patients ([1]; final population PK model, covariate effect of infection status on Vp2): 1.69
- Vp1-BSA power [1, 4]: 1.14
- Vp2-BSA power [1, 4]: 2.47
- Vp1-albumin power ([1]; final population PK model, covariate effect: (albumin/4.2)^power): −0.829
- Vc-BSA slope ([1]; final population PK model, covariate effect: Vc + slope x (BSA - 1.83)): 7.54
- CLd1, population mean final estimate ([1]; final population PK model, distributional clearance to peripheral compartment 1): 18.2 L/h
- CLd2, population mean final estimate ([1]; final population PK model, distributional clearance, peripheral compartment 2): 0.541 L/h
- CLd3, population mean final estimate ([1]; final population PK model, distributional clearance, peripheral compartment 3): 0.0743 L/h
- Vp1, population mean final estimate ([1]; final population PK model, volume of distribution for peripheral compartment 1, albumin 4.2, BSA 1.83): 14.6 L
- Vp2, population mean final estimate ([1]; final population PK model, volume of distribution for peripheral compartment 2, BSA 1.83, not infected): 6.69 L
- Vc, population mean final estimate ([1]; final population PK model, volume of distribution for the central compartment, BSA 1.83, not infected): 11.1 L
- Vp3, population mean final estimate ([1]; final population PK model, volume of peripheral compartment 3): 13.6 L
- clearance ([1]; human, final linear four-compartment population PK model, zero-order IV input, pooled healthy volunteers (phase 1) and infected patients (phase 2), 135 subjects, 50 to 1,400 mg IV, plasma LC/MS/MS, NONMEM FOCE-I, albumin 4.2, read-out: CL, population mean final estimate (converted)): 4.23 mL/min
- AUC0–168 [2, 5]: 673 (372–1,210) mg·h/liter
- Cmax ([2]; STRIVE patients, mean (SD), SD): 16.4 (4.38) mg/liter
- Cmax [2, 5]: 16.4 (7.10–26.0) mg/liter
- Cmin ([2]; STRIVE patients, mean (SD), SD): 2.07 (0.659) mg/liter
- Cmin [2, 5]: 1.90 (1.04–3.83) mg/liter
- clearance ([2]; STRIVE patients, mean (SD), SD): 6.08 mL/min
- clearance [2, 5]: 5.75 mL/min
- Vd ([2]; STRIVE patients, mean (SD), SD): 61 L
- Vd [2, 5]: 52.7 L
- AUC0–168 ([2]; patients with candidemia and/or invasive candidiasis, STRIVE trial, 400 mg IV week 1, mean (SD), SD): 709 (184) mg·h/liter
- protein binding ([3]; humans): 97.4%
- protein binding ([3]; rats): 99.2%
